Source: patent US7335756B2, “Retinoic acid metabolizing cytochrome P450” (Cytochroma Inc., priority 2001, dated 2008)
Where “and” joins values, the source holds several entries; their conditions need not be identical. Equal entries are not always repeated. Where two headings read alike, the source gives them in different places. Values belong to the compound of their own block, whether it stands above or below them.

Tests used:
[1] = biological target: T1, CYP26-B (Homo sapiens, UniProt Q9NR63); assay: [3H]-RA-metabolism inhibition in Sf9-Bac-CYP26-B insect microsomes; format: biochemical; details: at much higher concentrations
T1 sequence (Q9NR63 1-512): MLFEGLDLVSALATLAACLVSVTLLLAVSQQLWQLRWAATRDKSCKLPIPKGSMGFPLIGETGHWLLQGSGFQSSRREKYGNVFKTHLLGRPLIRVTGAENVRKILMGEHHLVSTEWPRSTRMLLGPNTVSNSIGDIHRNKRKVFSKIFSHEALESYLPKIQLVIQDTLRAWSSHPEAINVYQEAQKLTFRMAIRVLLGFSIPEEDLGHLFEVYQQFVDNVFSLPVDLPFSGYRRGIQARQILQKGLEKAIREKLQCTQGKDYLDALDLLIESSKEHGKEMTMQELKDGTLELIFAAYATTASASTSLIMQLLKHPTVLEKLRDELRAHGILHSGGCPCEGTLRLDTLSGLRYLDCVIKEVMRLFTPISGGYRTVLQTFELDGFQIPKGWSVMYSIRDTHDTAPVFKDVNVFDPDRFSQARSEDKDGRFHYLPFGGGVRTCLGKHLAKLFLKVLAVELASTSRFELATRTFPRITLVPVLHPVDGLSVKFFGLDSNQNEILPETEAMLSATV
Protocol: (§1) RA-metabolism activity was assessed using RA-metabolism microsomes-based assay and Bligh Dyer extraction as follows: Using an automatic repeating-pipette, gently thawed and homogenized microsomes were plated in a 48-well plate in final volume of 150 μl of storage buffer containing 0.5 mg/ml BSA. At indicated concentration 2 μl of compound solution was added to the assay and 2 μl of DMSO was added to MS control (quadruplet) and No-MS control. 50 μl of [^3H]-RA solution (30,000 cpm, 2 nM final concentration) was added. […] After 1-hour incubation the reaction was stopped by adding 5 μl of 10% acetic acid. Organic and aqueous soluble radio-labelled metabolites were extracted using the Bligh-Dyer procedure. Saturated activity obtained in presence of NADPH at 5 μg of microsomes, FIG. 14.

[2] = biological target: T2, CYP26-A (Homo sapiens, UniProt O43174, E104D/H105D/L421A/M420S); assay: 9-cis-RA binding assay, CYP26-A; details: substrate 0.05 nM to 1000 nM, linear, Kd not determinable
T2 sequence (O43174 1-497 E104D/H105D/M420S/L421A): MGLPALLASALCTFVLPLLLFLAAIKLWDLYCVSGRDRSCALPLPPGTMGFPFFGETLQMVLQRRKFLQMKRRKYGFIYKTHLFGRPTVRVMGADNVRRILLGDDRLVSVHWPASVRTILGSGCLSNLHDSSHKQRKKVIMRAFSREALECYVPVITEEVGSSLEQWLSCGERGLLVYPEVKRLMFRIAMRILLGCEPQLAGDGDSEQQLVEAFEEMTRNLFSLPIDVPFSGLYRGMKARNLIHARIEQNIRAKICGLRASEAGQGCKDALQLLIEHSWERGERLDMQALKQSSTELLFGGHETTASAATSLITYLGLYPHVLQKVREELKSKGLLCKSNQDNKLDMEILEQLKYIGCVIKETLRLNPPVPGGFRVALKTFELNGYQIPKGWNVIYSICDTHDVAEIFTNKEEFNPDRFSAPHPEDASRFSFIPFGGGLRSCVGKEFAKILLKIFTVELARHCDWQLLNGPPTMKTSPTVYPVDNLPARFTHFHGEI

[3] = biological target: T3, P450RAI-3 (Homo sapiens, UniProt Q6V0L0, F447L); assay: LC/MS analysis of ATRA and 9-cis-RA metabolism in Hela-P450RAI-3 stable cells; details: 5 hours
T3 sequence (Q6V0L0 1-522 F447L): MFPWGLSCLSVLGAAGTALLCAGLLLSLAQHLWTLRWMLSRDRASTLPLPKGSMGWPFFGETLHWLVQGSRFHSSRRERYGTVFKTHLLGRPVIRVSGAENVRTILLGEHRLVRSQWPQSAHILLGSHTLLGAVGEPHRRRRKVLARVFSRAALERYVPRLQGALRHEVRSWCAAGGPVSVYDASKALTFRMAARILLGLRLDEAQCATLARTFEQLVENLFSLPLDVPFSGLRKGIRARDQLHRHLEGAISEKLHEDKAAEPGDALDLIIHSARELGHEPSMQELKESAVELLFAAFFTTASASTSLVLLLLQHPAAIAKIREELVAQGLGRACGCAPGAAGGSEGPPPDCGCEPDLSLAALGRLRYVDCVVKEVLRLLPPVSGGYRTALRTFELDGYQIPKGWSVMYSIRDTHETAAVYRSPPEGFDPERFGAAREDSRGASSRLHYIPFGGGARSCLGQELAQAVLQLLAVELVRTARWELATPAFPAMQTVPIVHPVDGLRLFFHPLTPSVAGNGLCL
Protocol: After 5 hours incubation at 37° C., cells were acidified with acetic acid and total retinoids were extracted using Ethyl acetate method. The organic upper layer was pooled and evaporated in speed-vacuum, and dried residues were dissolved in HPLC mobile solvent and analyzed in LC/MS.
The HPLC system consisted of a waters alliance 2690 separations module. Chromatography was obtained on an Eclipse X DB-C18 reverse phase column (5 um, 2.1×150 mm from HP). A gradient elution program was used using acetonitrile, water and 10% acetic acid. The flow was held at 0.2 ml/min.
Mass Spectrometry condition used for this work consisted of a Micro-mass Quatro Ultima Tandem triple quadruple mass spectrometer equipped with electrospray interface (ESI) and operated in a negative mode.

[4] = biological target: T3, P450RAI-3; assay: ATRA and 9-cis-RA binding assay, Sf9-Bac-P450RAI-3 insect microsomes; details: for Kd: Table 4 prints no unit
[5] = biological target: T1, CYP26-B; assay: ATRA and 9-cis-RA binding assay, CYP26-B microsomes; set-up: made in house; host or cells: HeLa cells stably expressing CYP26-B, microsomal fraction; details: substrate 0.05 nM to 1000 nM, linear, Kd not determinable
[6] = biological target: T3, P450RAI-3; assay: [3H]-RA-metabolism inhibition, transient Cos-P450RAI-3 cell-based assay; set-up: expressed in transfected cells; host or cells: COS-1 (transient, pcDNA-P450RAI-3, Fugene); details: at lower concentrations
Protocol: (§2) The purpose of these experiments is to determine the specific substrates for P450RAI-3. […] The RA metabolism reaction was started by the addition of 50 ul of [^3H]-RA solution (20000 cpm, 2 nM final concentration). Cells were incubated for 3 hours in a humidified CO2 incubator at 37 degrees Celsius. The reaction was stopped by the addition of 5 ul of 10% acetic acid. Organic and aqueous soluble radio-labelled metabolites were extracted using the Bligh-Dyer procedure.

[7] = biological target: T3, P450RAI-3; assay: ATRA / 9-cis-RA metabolism in pcDNA-P450RAI-3 transfected Cos-1 cells (Bligh-Dyer, HPLC); format: cell-based; set-up: expressed in transfected cells; host or cells: COS-1 (transient, pcDNA-P450RAI-3, Fugene); details: 2 nM radio-labeled substrate, 3 hours
Protocol: Mammalian Cos-1 cells were transfected with either pcDNA-P450RAI-3 or pcDNA-control vector using Fugene™ (Roche diagnostic) according to the manufacturers directions. After 48 hours post-tranfection, cells were washed with PBS and assessed for ATRA-metabolism activity as described Briefly, transfected cells were incubated with radio-labeled ^3[H]-ATRA (18000 cpm, 2 nM) for 3 hours. Organic and Water-soluble metabolites were extracted using Bligh-Dyer procedure and radioactivity counted (FIG. 10).
HPLC analysis of the organic metabolites: the Bligh-Dyer organic button-layer was dried out and residues were suspended in HPLC solvent and then analyzed by HPLC as described in [White et al, PNAS, vol 97, pg 6403-6408], FIG. 11.
Mammalian Cos-1 cells were transfected with either pcDNA-P450RAI-3 or pcDNA-control vector according to the manufacturers directions using Fugene (Roche). After 48 hours post-tranfection, cells were washed with PBS and assessed for 9-cis-RA-metabolism activity as described using Bligh-Dyer procedure. Briefly, transfected cells were incubated with radio-labeled ^3[H]-9-cis-RA (38000 cpm, 2 nM) for 3 hours. Organic and Water-soluble metabolites were extracted using Bligh-Dyer procedure and radioactivity counted, FIG. 19.

[8] = biological target: T1, CYP26-B; assay: [3H]-RA-metabolism inhibition, transient Cos-CYP26-B cell-based assay; details: at lower concentrations
[9] = biological target: T1, CYP26-B; assay: [3H]-RA-metabolism inhibition in mammalian microsomes from stable Hela-CYP26-B cells; format: biochemical; set-up: made in house; host or cells: HeLa cells stably expressing CYP26-B, microsomal fraction
Protocol: as §1
(§3) Microsomes prepared from either stable Hela-CYP26-B or transient P450RAI-3-transfected Cos cells were used.

[10] = biological target: T3, P450RAI-3; assay: [3H]-RA-metabolism inhibition in Sf9-Bac-P450RAI-3 insect microsomes; format: biochemical; details: 2 nM [3H]-RA, NADPH, 1 hour, read-out: ID50 (nM) Sf9-P450RAI-3
Protocol: Microsomes from P450RAI-3 and CYP26B infected Sf-9 cells were made as follows: exponentially growing cells were harvested, washed with ice-cold PBS, counted then homogenized and sonicated in lysis buffer containing protease inhibitors cocktail (10^8 cells par 5 ml lyses buffer). Since P450RAI-3 is a microsomal cytochrome, it preferably uses NADPH cytochromic P450 reductase and a flavoprotein for activity. The microsomes were isolated by differential centrifugations (10 min at 800×g, than 10 min at 10,000×g and finally the postmitichondirial supernatant was centrifuged at 100,000×g for 60 min using ultracentrifuge (Beckman). The microsomal pellet was isolated and homogenized gently in the storage buffer containing protease inhibitors cocktail. Protein concentration in the microsomal preparation was determined using a […] reaction assay kit with BSA as standards (Pierce). The absorbance at 562 nm of standards (BSA at 1, 0.5, 0.25, 0.125, and 0.0625 mg/ml) and 3 dilutions of microsomes samples (⅕, 1/10 and 1/20) was determined using an automatic microplate reader (μQuant, BioTek instruments Inc.). The protein concentration directly calculated by the software (KCJunior). […] Microsomes were assessed for P450 content by carbon monoxide assay and total P450 content was determined at 3 nmol/ml. […]

[11] = biological target: T3, P450RAI-3; assay: [3H]-RA-metabolism inhibition (substrate competition) in P450RAI-3 stable transfected Hela cells; format: cell-based; set-up: expressed in transfected cells; details: 2 nM [3H]-RA
Protocol: as §2

[12] = biological target: T3, P450RAI-3; assay: [3H]-RA-metabolism inhibition in mammalian microsomes from transient P450RAI-3-transfected Cos cells; format: biochemical; set-up: expressed in transfected cells; host or cells: COS-1 (transient, pcDNA-P450RAI-3, Fugene)
Protocol: RA-metabolism activity was assessed using RA-metabolism microsomes-based assay and Bligh Dyer extraction as follows: Using an automatic repeating-pipette, gently thawed and homogenized microsomes were plated in a 48-well plate in final volume of 150 μl of storage buffer containing 0.5 mg/ml BSA. At indicated concentration 2 μl of compound solution was added to the assay and 2 μl of DMSO was added to MS control (quadruplet) and No-MS control. 50 μl of [^3H]-RA solution (30,000 cpm, 2 nM final concentration) was added. The microsomes assay with the compounds and the [^3H]-ATRA were incubated first for 10 min at 37° C., and then the reaction started by adding 20 μl of NADPH solution (or 1 mM final). After 1-hour incubation the reaction was stopped by adding 5 μl of 10% acetic acid. Organic and aqueous soluble radio-labelled metabolites were extracted using the Bligh-Dyer procedure. Saturated activity obtained in presence of NADPH at 5 μg of microsomes, FIG. 14.
as §3

- competition / inhibition of CYP26-B [8]: not a substrate
- competition for CYP26B [9]: did not compete at lower concentrations
- competition / inhibition of P450RAI-3 [6]: not a substrate
Structure (SMILES): CC1=C(/C=C/C(C)=C/C=C/C(C)=C\C(=O)O)C(C)(C)CCC1 [13-cis-RA]

- substrate for CYP26-C [11]: not substrates
Structure (SMILES): CC1=C(/C=C/C(C)=C/C=C/C(C)=C/C=O)C(C)(C)CCC1 [Retinal]

Second part, the compound before the results:

Structure (SMILES): CC1=C(/C=C/C(C)=C\C=C\C(C)=C\C(=O)O)C(C)(C)CCC1 [9-cis-RA, 9-cis-retnoic acid]
- competition for CYP26-B [1]: very weak 9-cis-RA competition
- binding to CYP26-A [2]: weak binding
- metabolites formed by P450RAI-3 [3]: hydroxy and oxo-metabolites
- Kd ([4]; read-out: Kd, substrate binding to P450RAI-3, insect microsomes, nM): 69 nM
- binding to P450RAI-3 microsomes ([4]; substrate 0.05 nM to 1000 nM): Very good binding
- binding to CYP26-B [5]: weak binding
- competition / inhibition of P450RAI-3 [6]: competed only for P450RAI-3
- metabolism by P450RAI-3 [7]: converted 9-cis-RA to the hydoxy and oxo-metabolites and to more polar water-soluble metabolites

Structure (SMILES): CC(=O)N1CCN(c2ccc(OCC3COC(Cn4ccnc4)(c4ccc(Cl)cc4Cl)O3)cc2)CC1 (stereo not drawn) [Ketoconazole, ketoconazole]
- competition / inhibition of CYP26-B [8]: inhibited
- IC50 [10]: > 10000 nM
- IC50 ([11]; read-out: ID50, competition for P450RAI-3 [3H]-RA metabolism): 70 µM
- Kd ([4]; Kd, competition of ATRA binding to P450RAI-3, ketoconazole up to 100 μM, μM): 70500 nM and 75000 nM
- inhibition at 10 µM ([4]; read-out: inhibition of ATRA binding to P450RAI-3): 15%
- competition / inhibition of P450RAI-3 [6]: weak inhibitor
- IC50 ([12]; read-out: ID50 (nM) P450RAI-3): 72000 nM
- IC50 ([12]; read-out: ID50 P450RAI-3): 70000 nM

Structure (SMILES): CC1=C(/C=C/C(C)=C/C=C/C(C)=C/CO)C(C)(C)CCC1 [Retinol]
- substrate for CYP26-C [11]: not substrates
